From patent publication US5422372A, “Method of increasing intracellular accumulation of hydrophilic anionic agents using gemfibrizol” (priority 1993, dated 1995)
In brackets after ≈: the same amount, converted by molar mass. Entries after “also recorded” stand apart in the source; their conditions may differ. Where two headings read alike, the source gives them in different places.

Legend:
[1] = Toxicity to J774 cells; assay type: cell-based; conditions: mouse, read-out: concentrations toxic to the cells
[2] = system: organic anion transporters of J774 cells; assay: Lucifer Yellow secretion (efflux) from J774 cells; assay type: cell-based, mouse
Method: Cells were incubated in D10 containing 0.5 mg/ml Lucifer Yellow and 5 mM ATP with or without 10 mM penicillin G. The cells were then washed and incubated in fresh medium at 37° C. At intervals, the cells were viewed by fluorescence microscopy.

[3] = system: organic anion transporters of J774 cells; assay type: cell-based, mouse; conditions: for intracellular accumulation of radiolabel from [3H] norfloxacin: J774 cells incubated with [3H] norfloxacin and the inhibitor
Method: [^3 H]-Norfloxacin Retention in J774 Cells: J774 cells were prepared as above. The cells were incubated in PBS with 1.5 μCi/ml [^3 H] norfloxacin in the presence or absence of 10 mM probenecid for various lengths of time, washed and lysed. Cell-associated radioactivity and protein were quantitated as above.

[4] = system: organic anion transporters of J774 cells; conditions: cited from earlier work; for effect on intracellular sequestration and secretion of Lucifer Yellow: macrophages and J774 cells
[5] = system: organic anion transporters of J774 cells; assay type: cell-based, mouse
[6] = system: organic anion transporters of J774 cells
[7] = system: J774 cells; assay: Uptake of [14C] penicillin G by adherent J774 cells from extracellular medium; assay type: cell-based, mouse; conditions: even in the presence of 10 mM probenecid
Method: It was then questioned whether penicillin G was taken up by J774 cells from the extracellular medium, and whether this uptake was affected by organic anion transporters. In these experiments, adherent J774 cells were incubated in medium containing [^14 C] penicillin G, the cells were washed, and intracellular radiolabel was measured.

[8] = system: organic anion transporters of J774 cells; assay: Intracellular Lucifer Yellow accumulation during ATP permeabilization of J774 cells; assay type: cell-based, mouse; conditions: for effect on intracellular accumulation of Lucifer Yellow during ATP permeabilization: added together with 0.5 mg/ml Lucifer Yellow and 5 mM ATP
Method: The cells were incubated in phosphate buffered saline with divalent cations (PBS) containing 0.5 mg/ml Lucifer Yellow, 5 mM ATP and other compounds, at 37° C. as indicated in the text. The wells were washed with cold phosphate buffered saline without divalent cations (PD) 3 times, and plates were immersed successively in three beakers containing 1,000 ml cold PD. The first beaker also contained 0.1% bovine serum albumin. The cells then were lysed in 0.05% Triton X-100, and fluorescence was measured in a fluorescence spectrophotometer using an excitation wavelength of 430 nm and an emission wavelength 540 nm. Total cell protein was measured by a modification of the Lowery method. (6) Results were expressed as ng Lucifer Yellow/mg protein.
An assay to identify competitive inhibitors of the organic anion transporters that mediate the secretion of Lucifer Yellow was developed. It was reasoned that any substrate of the organic anion transporter small enough to enter the cells through ATP-induced pores, when added together with Lucifer Yellow during ATP permeabilization, would compete with Lucifer Yellow for efflux and cause higher intracellular accumulation of Lucifer Yellow. This assay was used to determine whether various substrates for other organic anion transporters competed with Lucifer Yellow for secretion by J774 cells.

[9] = system: L. monocytogenes; assay: Extracellular growth assay: minimum bacteriocidal concentration (MBC); assay type: cell-based; conditions: Listeria monocytogenes; brain-heart infusion broth; read-out: NFX concentration bacteriocidal for LM (MBC)
Method: 10 μl of the contents of each sample from the MIC assay described above was plated on 10 cm plates containing 20 ml. LB, agar, and the plates were incubated overnight at 25° C., 30° C. and 35° C. The number of colonies were counted.

[10] = system: L. monocytogenes; assay: Extracellular growth assay: minimum inhibitory concentration (MIC); assay type: cell-based; conditions: Listeria monocytogenes; brain-heart infusion broth; read-out: NFX concentration that blocked growth of LM (MIC)
Method: L. monocytogenes were inoculated into 1 ml of BHI broth and grown overnight in BHI broth to a density of approximately 10^9 bacteria per ml, diluted to a concentration of 2×10^3 bacteria per ml in Brain Heart Infusion Broth, and 0.5 ml aliquots of this suspension were placed in separate tubes. Norfloxacin (NFX) at the indicated concentrations in 0.5 ml BHI broth was added to the tubes containing L. monocytogenes, and the bacteria were incubated overnight at 25° C., 30° C. and 35° C. The MIC of NFX for L. monocytogenes was determined by visual inspection (tubes without antibiotic, in which the bacteria grew contained a cloudy suspension).

[11] = system: Listeria monocytogenes in J774 cells; assay: Intracellular growth of Listeria monocytogenes in J774 cells; assay type: cell-based
Method: J774 cells grown in spinner culture were centrifuged for 5 min. at 1000 RPM. The cells were resuspended in fresh DME+5% HICS without antibiotics at a concentration of 2×10^5. 5 ml of this cell suspension was plated into each 60 mm Petri dish containing multiple 12×1 mm round coverslips (Fisher Scientific Co.) the evening before use to allow the cells to form monolayers on the coverslips. The cells were incubated overnight at 37° C.
L. monocytogenes was incubated overnight in BHI broth to a density of approximately 10^9 /ml in a shaker at 37° C. 1 ml of the bacterial suspension was sedimented in a microfuge tube (USA/Scientific Plastics, Ocala, Fla.) for 1 min at 8000 RPM. The supernatant was removed and the pellet was washed once in 1 ml of PBS at pH 7.4. The bacteria were then resuspended in 1 ml fresh DME+5% HICS, diluted in DME+5% HICS to a concentration of 2×10^5 bacteria per ml, and 5 ml of this suspension (10^6 bacteria total) was placed in each 60 mm dish containing a monolayer of J774 cells (infection ratio 1:1). The dishes were incubated at 35° C. for 60 minutes. The coverslip was then transferred to a new 60 mm petri dish containing 10 ml of pre warmed DME+5% HICS and 5 μg/ml of gentamicin. The cells were incubated in the gentamicin containing medium for 1 hr. at 35° C. to kill extracellular bacteria, as described by Portnoy et al. (9), at which time additional drugs were added as indicated below. One 60 mm dish received no addition (control). Other 60 mm dishes received Gemfibrozil (GFZ) (0.2 mM), and/or Norfloxacin (NFX) at 2, 4 or 8 μg per ml, as indicated. Drugs were added either separately or in combination to make four independent sets: No addition, GFZ alone, NFX alone, or GFZ+NFX. The cultures were further incubated at 35° C. Three coverslips containing the Listeria-infected J774 cells were harvested from each culture dish at 2 hours after infection and at 2 hour intervals thereafter. The number of bacteria in the J774 cells on each cover slip was determined by depositing each coverslip into 5 ml of sterile distilled water in a 15 ml Falcon tube. The tubes were vortexed for 15 sec. to lyse the infected cells and 10 or 50 μL of each Listeria-containing solution was plated onto 10 cm dishes containing LB agar. The LB agar plates were incubated at 37° C. overnight, the bacterial colonies were counted, and the number of bacteria per cover slip was calculated from the number of colonies on the agar. Every data point represents the average of the number of bacterial colonies recovered from three coverslips.

O=C1C(CC[S+]([O-])c2ccccc2)C(=O)N(c2ccccc2)N1c1ccccc1 (centres unmarked) [sulfinpyrazone]
MCC [1]: > 2.5 mM
concentrations that block secretion of Lucifer Yellow, penicillin and Norfloxacin [2]: 2 to 5 mM
intracellular accumulation of radiolabel from [3H] norfloxacin [3]: marked increase
effect on intracellular sequestration and secretion of Lucifer Yellow [4]: inhibit both intracellular sequestration and secretion of Lucifer Yellow
ED50 for enhancing intracellular retention of norfloxacin (in words) ([5]; 30 minutes, J774 cells): essentially the same as that for probenecid

CC1(C)S[C@@H]2[C@H](NC(=O)Cc3ccccc3)C(=O)N2[C@H]1C(=O)O [penicillin G]
penicillin originally inside the cells secreted into the medium [6]: about 80%
rate of Lucifer Yellow efflux after co-loading by ATP permeabilization ([2]; 10 mM penicillin G, fluorescence microscopy): reduced the rate of Lucifer Yellow afflux
intracellular radiolabel after incubation with [14C] penicillin G without ATP permeabilization [7]: could not be readily detected
effect on intracellular accumulation of Lucifer Yellow during ATP permeabilization [8]: increase Lucifer Yellow retention in a dose-dependent manner
accumulation of [3H] norfloxacin in preloaded cells ([5]; preloaded with 10 mM by ATP-permeabilization, compared with 10 mM gluconic acid preload): significant increase

CCn1cc(C(=O)O)c(=O)c2cc(F)c(N3CCNCC3)cc21 [NFX, Norfloxacin]
MBC [9]: 8 µg/mL (≈ 25.1 µM)
time at which intracellular norfloxacin concentration reached plateau [3]: ≤ 10 min
MIC [10]: 4 µg/mL (≈ 12.5 µM)
intracellular growth of LM in J774 cells ([11]; 2 μg/ml NFX alone): little inhibitory effect; also recorded: slowed intracellular growth
intracellular growth of LM in J774 cells ([11]; 4 μg/ml NFX alone): marked inhibition of intracellular growth; also recorded: bacteriostatic
intracellular growth of LM in J774 cells ([11]; 8 μg/ml NFX alone): bacteriostatic effect

NC(=O)c1cnccn1 [pyrazinamide]
effect on intracellular accumulation of Lucifer Yellow during ATP permeabilization [8]: had no effect

CCCN(CCC)S(=O)(=O)c1ccc(C(=O)O)cc1 [probenecid, Probenecid]
intracellular penicillin secreted from the cells ([6]; after 30 minutes, in the presence of 10 mM probenecid): 37%
concentrations that block secretion of Lucifer Yellow, penicillin and Norfloxacin [2]: 2 to 5 mM
intracellular accumulation of radiolabel from [3H] norfloxacin [3]: marked increase
time at which intracellular norfloxacin concentration reached plateau ([3]; in the presence of 10 mM probenecid): 30 min
enhancement of intracellular accumulation of norfloxacin ([3]; j774 cells, 10000 µM): 3-4 fold
effect on intracellular sequestration and secretion of Lucifer Yellow [4]: inhibit both intracellular sequestration and secretion of Lucifer Yellow
increase of intracellular retention of Lucifer Yellow ([8]; 5-10 mM probenecid in medium with Lucifer Yellow and ATP): 2.5 fold
reversibility of the effect on norfloxacin retention ([5]; 10 mM probenecid 30 minutes, then washed): reversible
EC50 ([5]; 30 minutes, J774 cells, read-out: ED50 for enhancing intracellular retention of norfloxacin): 500 µM
[3H] norfloxacin remaining in cells after probenecid removal relative to cells never incubated in probenecid ([5]; steady state after removal of 10 mM probenecid): twice

O=C(O)[C@H](O)[C@@H](O)[C@H](O)[C@H](O)CO [Gluconic acid]
effect on intracellular accumulation of Lucifer Yellow during ATP permeabilization [8]: had no effect
effect on intracellular norfloxacin concentration ([5]; 10 mM gluconic acid compared with norfloxacin only in PBS): did not affect

Cc1ccc(C)c(OCCCC(C)(C)C(=O)O)c1 [GFZ, 5-(2,5-dimethylphenoxy)-2,2-dimethylpentanoic acid]
concentration inhibiting Lucifer Yellow secretion relative to PB [2]: ten-fold lower concentration than PB
enhancement of intracellular accumulation of NFX ([5]; 0.2 mM GFZ): four-fold
EC50 ([5]; J774 cells, read-out: ED50 for enhancing intracellular accumulation of [3H]NFX): 15 µM
ED50 lower than the ED50 of PB or sulfinpyrazone ([5]; [3H]NFX accumulation by J774 cells): 30 fold
intracellular growth of LM in J774 cells ([11]; 0.2 mM GFZ alone): has no effect on the rate or extent of growth; also recorded: does not inhibit growth

NNC(=O)NN1C(=O)c2cc(S(=O)(=O)O)cc3c(N)c(S(=O)(=O)O)cc(c23)C1=O [Lucifer Yellow]
dye secreted by the cells into the medium ([4]; within 30 minutes after ATP-mediated permeabilization): 80-85%
